Where two headings read alike, the source gives them in different places.
How the values were obtained:
[1] = tested on: Zymomonas mobilis ZM4 wild-type; test: Bioscreen growth of Z. mobilis ZM4 wild-type in RM with inhibitors; assay type: cell-based; conditions: for Final Cell Density / Growth rate: ZM4
Procedure: (§1) FIGS. 3A-3C. […] Z. mobilis strains were grown in RM (pH5.0) overnight, 20-μL culture were then transferred into 250-μL, RM media in the Bioscreen plate. […] Strains included in this study are: ZM4: Zymomonas mobilis ZM4 wild-type; AcR: ZM4 acetate tolerant mutant (Joachimstahl 1998); ZM4 (p42-0347): ZM4 containing a gateway plasmid p42-0347 over-expressing ZM4 gene ZMO0347; AcRIM0347: AcR insertional mutant of ZMO0347; AcRIM0347 (p42-0347): AcRIM0347 containing gateway plasmid p42-0347 over-expressing ZM4 gene ZMO0347. […] Triplicates were used for each condition.
(§2) FIGS. 4A-4E. […] Z. mobilis strains were grown in RM (pH5.0) overnight, 5-μL culture were then transferred into 250-μL RM media in the Bioscreen plate. […] Strains included in this study are: ZM4: Zymomonas mobilis ZM4 wild-type; AcR: ZM4 acetate tolerant mutant; ZM4 (p42-0347): ZM4 containing a gateway plasmid p42-0347 to express ZM4 gene ZMO0347; AcRIM0347: AcR insertional mutant of ZMO0347; AcRIM0347 (p42-0347): AcRIM0347 containing gateway plasmid p42-0347. […] Duplicate biological replicates were used for each condition.
(§3) FIGS. 5A-5E. […] Z. mobilis strains were grown in RM (pH 5.0) overnight, 5-μL culture were then transferred into 250-μL RM media in the Bioscreen plate. […] Strains included in this study are: ZM4: Zymomonas mobilis ZM4 wild-type; AcR: ZM4 acetate tolerant mutant; AcRIM0347: AcR insertional mutant of ZMO0347; AcRIM0347 (p42-0347): AcRIM0347 containing gateway plasmid p42-0347 over-expressing ZM4 gene ZMO0347.
(§4) American Type Culture Collection (ATCC31821) and the Z. mobilis acetate tolerant strain AcR has been described previously (Joachimsthal et al. 2000). ZM4 and AcR were cultured in RM medium at 30° C. S. cerevisiae wild-type, deletion mutant and GST-fusion ORF over-expression strains were obtained through Open Biosystems (Huntsville, Ala.). S. cerevisiae strains were cultured in rich YPD media. CM media with 2% glucose was used for S. cerevisiae wild-type and S. cerevisiae deletion mutants, CM media with 2% glucose minus uracil was used for S. cerevisiae GST-over expressing strains, 2% galactose was used to induce the GST-fusion strains. Plasmid-containing strains were routinely grown with antibiotics at the following concentrations (μg/mL): kanamycin of 50 for E. coli and 200 for ZM4; tetracycline, 10 for E. coli and 20 for ZM4; and gentamicin, 10 for E. coli. G418 of 200 for S. cerevisiae YKO deletion mutants. Growth was monitored turbidometrically by measuring optical density at 600nm periodically with the Bioscreen C automated microbiology growth curve analysis system (Growth Curve USA, Piscataway, N.J.).

[2] = tested on: AcR: ZM4 acetate tolerant mutant; assay type: cell-based, Zymomonas mobilis; conditions: for Final Cell Density / Growth rate: AcR
Procedure: as §1, §2, §3, §4

AcRIM0347 (p42-0347) = assay type: cell-based, Zymomonas mobilis; conditions: for Lag phase of AcRIM0347 (p42-0347) versus AcRIM0347 grown with inhibitor: Table 4, FIGS. 5A-5D
Procedure: as §1, §2, §3, §4

[3] = tested on: AcRIM0347: AcR insertional mutant of ZMO0347; assay type: cell-based, Zymomonas mobilis; conditions: for Final Cell Density / Growth rate: AcRIM0347
Procedure: as §1, §2, §3, §4

Z. mobilis = test: Bioscreen growth of Z. mobilis with pretreatment inhibitors (strain not specified); assay type: cell-based, Zymomonas mobilis; conditions: for Time to complete active growth and reach the stationary phase: in the presence of the inhibitor, 11 h without any inhibitor (FIGS. 5A-5D); for Relative inhibitory effect on Z. mobilis among vanillin, furfural and HMF: Table 4 conditions
Procedure: FIGS. 5A-5E. Z. mobilis Hfq conferred tolerance to different classes of pretreatment inhibitors. Z. mobilis strains were grown in RM (pH 5.0) overnight, 5-μL culture were then transferred into 250-μL RM media in the Bioscreen plate. The growth differences of different strains were monitored by Bioscreen (Growth Curves USA, NJ) under anaerobic conditions in RM, pH 5.0 (A), RM with 1 g/L vanillin, pH 5.0 (B), 1 g/L furfural, pH 5.0 (C), 1 g/L HMF, pH 5.0 (D) and 0.001% H2O2 (E). Strains included in this study are: ZM4: Zymomonas mobilis ZM4 wild-type; AcR: ZM4 acetate tolerant mutant; AcRIM0347: AcR insertional mutant of ZMO0347; AcRIM0347 (p42-0347): AcRIM0347 containing gateway plasmid p42-0347 over-expressing ZM4 gene ZMO0347. This experiment has been repeated at least three times with similar result for hydrogen peroxide growth and in duplicate for the vanillin growth.
as §4

[4] = tested on: S. cerevisiae Lsm protein over-expressing strains; test: Bioscreen growth of S. cerevisiae Lsm protein over-expressing (GST) strains with inhibitors; assay type: cell-based
Procedure: (§5) FIGS. 6A-6B. […] S. cerevisiae strains were grown in CM with 2% glucose for wild-type BY4741 and the deletion mutants, CM with 2% glucose minus uracil for GST over-expression strains. Five-μL culture was then transferred into 300-μL CM broth in the Bioscreen plate.
(§6) FIGS. 7A-7P. […] S. cerevisiae strains were grown in CM with 2% glucose (CM+glucose) for wild-type BY4741 and the deletion mutants, CM with 2% glucose and 2% galactose minus uracil (CM+glucose+2% galactose) for GST overexpression strains. A 5-μL culture was then transferred into 250-μL CM broth in the Bioscreen plate.
as §4

ZM4 (p42-0347) = test: Bioscreen growth of ZM4 (p42-0347) in RM with sodium and acetate ions; assay type: cell-based, Zymomonas mobilis; conditions: ZM4 (p42-0347); RM pH 5.0 supplemented with 195 mM of the chemical, anaerobic
Procedure: as §1, §2, §4

[5] = tested on: S. cerevisiae Lsm deletion mutants; assay type: cell-based; conditions: 305 mM NaCl in CM broth
Procedure: as §5, §6
American Type Culture Collection (ATCC31821) and the Z. mobilis acetate tolerant strain AcR has been described previously (Joachimsthal et al. 2000). ZM4 and AcR were cultured in RM medium at 30° C. S. cerevisiae wild-type, deletion mutant and GST-fusion ORF over-expression strains were obtained through Open Biosystems (Huntsville, Ala.). S. cerevisiae strains were cultured in rich YPD media. […] Growth was monitored turbidometrically by measuring optical density at 600nm periodically with the Bioscreen C automated microbiology growth curve analysis system (Growth Curve USA, Piscataway, N.J.).

[6] = RM with HMF 0.75 g/L, furfural or vanillin 1 g/L
[7] = AcRIM0347(p42-0347), RM with HMF 0.75 g/L, furfural or vanillin 1 g/L
[8] = RM pH 5.0 supplemented with 195 mM of the chemical, anaerobic, NA = lack of growth
[9] = RM pH 5.0 supplemented with 195 mM of the chemical, anaerobic
[10] = AcRIM0347 (p42-0347), RM pH 5.0 supplemented with 195 mM of the chemical, anaerobic

| Compound | Final Cell Density [1, 6] | Growth rate [1, 6] | Final Cell Density [2, 6] | Growth rate [2, 6] | Final Cell Density (AcRIM0347 (p42-0347); [7]) | Growth rate (AcRIM0347 (p42-0347); [7]) | Lag phase of AcRIM0347 (p42-0347) versus AcRIM0347 grown with inhibitor (AcRIM0347 (p42-0347)) | Final Cell Density [3, 6] | Growth rate [3, 6] | Time to complete active growth and reach the stationary phase (Z. mobilis) | Final Cell Density [1, 8] | Growth rate [1, 8] | Final Cell Density [2, 9] | Growth rate [2, 9] | Final Cell Density (AcRIM0347 (p42-0347); [10]) | Growth rate (AcRIM0347 (p42-0347); [10]) | Final Cell Density (ZM4 (p42-0347)) | Growth rate (ZM4 (p42-0347)) | other results |
| --- | --- | --- | --- | --- | --- | --- | --- | --- | --- | --- | --- | --- | --- | --- | --- | --- | --- | --- | --- |
| O=Cc1ccco1 [Furfural, furfural] | 0.88 ± 0.006 OD600 nm | 0.31 ± 0.01 h⁻¹ | 0.89 ± 0.009 OD600 nm | 0.30 ± 0.005 h⁻¹ | 0.80 ± 0.02 OD600 nm | 0.20 ± 0.01 h⁻¹ | shorter lag phases | 0.67 ± 0.001 OD600 nm | 0.19 ± 0.03 h⁻¹ | ~19 h |  |  |  |  |  |  |  |  | Growth of Lsm overexpression strains with inhibitor ([4]; 1.5 g/L): slight growth advantage |
| OO [H2O2, hydrogen peroxide] |  |  |  |  |  |  |  |  |  |  |  |  |  |  |  |  |  |  | Growth of ZM4 in RM medium with H2O2 ([1]; 0.001% H2O2): grew well; Growth of AcR in RM medium with H2O2 ([2]; 0.001% H2O2): grew well; Growth of AcRIM0347(p42-0347) in RM medium with H2O2 (AcRIM0347 (p42-0347); 0.001% H2O2): to grow; Growth of AcRIM0347 in RM medium with H2O2 ([3]; 0.001% H2O2): no observable growth |
| O=Cc1ccc(CO)o1 [HMF, hydroxymethyl furfural] | 0.93 ± 0.003 OD600 nm | 0.36 ± 0.02 h⁻¹ | 0.96 ± 0.006 OD600 nm | 0.35 ± 0.01 h⁻¹ | 0.78 ± 0.02 OD600 nm | 0.22 ± 0.001 h⁻¹ | shorter lag phases | 0.67 ± 0.03 OD600 nm | 0.19 ± 0.02 h⁻¹ | about 16 h |  |  |  |  |  |  |  |  | Relative inhibitory effect on Z. mobilis among vanillin, furfural and HMF (Z. mobilis): least effect; Growth of Lsm overexpression strains with inhibitor ([4]; 1.5 g/L): slight growth advantage |
| CC(=O)[O-].[K+] [Kac, potassium acetate] |  |  |  |  |  |  |  |  |  |  | 0.42 ± 0.002 OD600 nm | 0.15 ± 0.004 h⁻¹ | 0.40 ± 0.000 OD600 nm | 0.12 ± 0.000 h⁻¹ | 0.28 ± 0.007 OD600 nm | 0.09 ± 0.003 h⁻¹ | 0.34 ± 0.004 OD600 nm | 0.12 ± 0.006 h⁻¹ | Growth of hfq mutant AcRIM0347 in the presence of acetate salt ([3]; 195 mM in RM): unable to grow |
| CC(=O)O.N [NH4OAc, ammonium acetate] |  |  |  |  |  |  |  |  |  |  | 0.43 ± 0.01 OD600 nm | 0.20 ± 0.008 h⁻¹ | 0.42 ± 0.006 OD600 nm | 0.19 ± 0.005 h⁻¹ | 0.32 ± 0.007 OD600 nm | 0.22 ± 0.002 h⁻¹ | 0.37 ± 0.008 OD600 nm | 0.19 ± 0.007 h⁻¹ | Growth of hfq mutant AcRIM0347 in the presence of acetate salt ([3]; 195 mM in RM): unable to grow |
| [Cl-].[Na+] [NaCl, sodium chloride] |  |  |  |  |  |  |  |  |  |  | 0.73 ± 0.01 OD600 nm | 0.24 ± 0.008 h⁻¹ | 0.96 ± 0.01 OD600 nm | 0.29 ± 0.005 h⁻¹ | 0.72 ± 0.02 OD600 nm | 0.22 ± 0.009 h⁻¹ | 0.84 ± 0.01 OD600 nm | 0.25 ± 0.008 h⁻¹ | Relative inhibitory effect on wild-type Z. mobilis growth among sodium and acetate salts ([1]; 195 mM in RM): least negative influence; Reduction of growth rate and final cell density of AcRIM0347 compared to parental strain AcR ([3]; 195 mM in RM): reduced by at least a quarter; Final Cell Density [3, 8]: 0.73 ± 0.03 OD600 nm; Growth rate [3, 8]: 0.21 ± 0.008 h⁻¹; Growth differences between Lsm mutants and wild-type BY4741 [5]: not observed; Growth of Lsm overexpression strains compared to wild-type BY4741 ([4]; 305 mM NaCl): grew similarly to wild-type BY4741 |
| COc1cc(C=O)ccc1O [Vanillin, vanillin] | 0.69 ± 0.006 OD600 nm | 0.26 ± 0.001 h⁻¹ | 0.71 ± 0.01 OD600 nm | 0.26 ± 0.01 h⁻¹ | 0.70 ± 0.01 OD600 nm | 0.20 ± 0.003 h⁻¹ | shorter lag phases | 0.66 ± 0.01 OD600 nm | 0.20 ± 0.006 h⁻¹ | ~21 h |  |  |  |  |  |  |  |  | Relative inhibitory effect on Z. mobilis among vanillin, furfural and HMF (Z. mobilis): most significant inhibitory effect; Growth of Lsm overexpression strains with inhibitor ([4]; 0.75 g/L): detrimental effect on growth |
